Laboratory results: patent US20130281526A1, “METHOD FOR TREATING IRRITABLE BOWEL SYNDROME WITH DIARRHEA” (SUCAMPO AG, priority 2012, published 2013)

How the values were obtained:
[1] = tested on: patients with irritable bowel syndrome with diarrhea; test: Weekly responder rate for relief of IBS symptoms (7-point balanced scale) in patients; format: in vivo, human; details: 16 mcg per day, responder = moderately or significantly relieved
Excerpt: The patients who had 25% or more loose or very loose stools during the baseline were enrolled as a patient with irritable bowel syndrome with diarrhea. The patients received placebo or lubiprostone 16 mcg per day.

[2] = tested on: patients with irritable bowel syndrome with diarrhea; test: Subject symptom assessments, change from baseline after 12 weeks treatment; format: in vivo, human; details: 16 mcg per day for 12 weeks
Method: The patients with irritable bowel syndrome with diarrhea defined in Example 1 received luboiprostone 16 mcg per day for 12 weeks.
The assessments were conducted by the following criterias.
Subject Evaluation of Abdominal Bloating: 0=Absent, 1=Mild, 2=Moderate, 3=Severe, and 4=Very Severe Subject Evaluation of Abdominal. Discomfort/Pain: 0=Absent, 1=Mild, 2=Moderate, 3=Severe, and 4=Very Severe Subject Evaluation of Constipation Severity: 0= Absent, 1=Mild, 2=Moderate, 3=Severe, and 4=Very Severe BM Frequency=(7×Number of BMs)/(Number of days) Subject Evaluation of Bowel Straining: 0=Absent, 1=Mild, 2=Moderate, 3=Severe, and 4=Very Severe

CCCCC(F)(F)[C@@]1(O)CC[C@H]2[C@@H](CC(=O)[C@@H]2CCCCCCC(=O)O)O1 [lubiprostone, (−)-7-[(2R, 4aR, 5R, 7aR)-2-(1,1-difluoropentyl)-2-hydroxy-6-oxooctahydrocyclopenta[b]pyran-5-yl]heptancoic acid]
Weekly Responder Rate ([1]; Week 2): 33.8%
Weekly Responder Rate ([1]; Week 3): 34.9%
Weekly Responder Rate ([1]; Week 4): 34.7%
BM Frequency, change from the baseline after the treatment ([2]; BM Frequency=(7×Number of BMs)/(Number of days), baseline 3.64): 0.36
Abdominal Discomfort/Pain, change from the baseline after the treatment ([2]; score 0=Absent to 4=Very Severe, baseline 2.80): −1.08
Constipation Severity, change from the baseline after the treatment ([2]; score 0=Absent to 4=Very Severe, baseline 3.16): −1.31
Abdominal Bloating, change from the baseline after the treatment ([2]; score 0=Absent to 4=Very Severe, baseline 3.28): −1.37
Bowel Straining, change from the baseline after the treatment ([2]; score 0=Absent to 4=Very Severe, baseline 4.00): −2.00
